Tests used:
[1] = test system: multiple myeloma cells U266; assay: MTT test, cell viability of U266 cells; format: cell-based, human; conditions: Homo sapiens, U-266; 10^−4M; serum-free medium; FIG. 2A; read-out: Cell killing / reduction of viability of U266 cells
Method: (§1) The MTT test is a standard assay addressing cell toxicity of a compound. It is based on the principle that after 3-4 hours of cell incubation with MTT (3-(4,5-dimethylthiazole-2-yl)-2,5-diphenyl tetrazolium bromide) so-called purple formazan crystals develop in living and early apoptotic cells. Dead cells don't produce formazan crystals.
(§2) Different cell lines were tested. Unless indicated differently, A549 human lung epithelial cells (derived from lung carcinoma) and L929sA murine fibroblast cells were cultured in DMEM with 10% FCS, 100 U/ml penicillin and 100 μg/ml streptomycin. Unless indicated differently, the human multiple myeloma cell lines L363, U266 and MM1.S were cultured in RPMI 1640 with Glutamax-I, supplemented with 10% FCS, 100 U/ml penicillin and 100 μg/ml streptomycin. Cells were seeded at 5000 cells/well (for adherent A549 and L929sA cells) or at 10000 cells/well (for the multiple myeloma lines in suspension) in 96 well plates. Cells were incubated in the presence of the respective synephrine compounds or vehicle (EtOH; for control test) in a final volume of 0.2 ml for 24 or 48 hours at 37° C. Subsequently, 20 μl of MTT solution (5 mg/ml in phosphate-buffered saline) was added to each well. After 4 hours incubation at 37° C., 80 μl of the extraction buffer (10% SDS, 0.01 M HCl) was added. After overnight incubation at room temperature, the optical densities at 590 nm were measured. Results are illustrated in FIGS. 2 to 6 and are expressed as percentage of viable cells as compared to vehicle-treated controls.
(§3) The MTT test was further extended to include alternative synephrine derivatives and a range of multiple myeloma cell lines for which the results are illustrated by FIGS. 3A, 3B and 4A. Human multiple myeloma cell lines L363, U266 and MM1.S were cultured in RPMI 1640 with Glutamax-I, supplemented with 10% FCS, 100 U/ml penicillin and 100 μg/ml streptomycin. Cells were seeded at 10000 cells/well in 96 well plates. Cells were incubated in the presence of test compounds or vehicle in a final volume of 0.2 ml for 24 or 48 hours at 37° C. The test compounds included in the test were the synephrine derivatives CpdA, Naphth, Benz and Isobut, and DEX as a comparative example. Subsequently, 20 μl of MTT solution (5 mg/ml in phosphate-buffered saline) was added to each well. After 4 hours incubation at 37° C., 80 μl of the extraction buffer (10% SDS, 0.01 M HCl) was added. After 48 hours incubation at room temperature, the optical densities at 590 nm were measured. Results are expressed as percentage of viable cells as compared to vehicle-treated controls.

MM1.S cell line = assay: MTT test, cell viability of MM1.S cells; format: cell-based, human; conditions: Homo sapiens, MM1.S; 10^−4 M; 10% FCS; FIG. 4A; read-out: Inhibition of MM1.S cell viability
Method: as §1, §2, §3

[2] = MTT test, cell viability of L929sA fibroblasts; format: cell-based, murine; conditions: mouse, L929sA fibroblast cells; 10^−4 M; 48 hours; FIG. 5B; read-out: Block of L929sA cell viability
Method: as §1, §2
In a further MTT test, the activity of the synephrine derivatives on the inhibition of cell viability of non-immune cells was measured. […] Tests were performed for 24 hours and for 48 hours. The results are illustrated by FIGS. 5A and 5B for L929 cells, and by FIGS. 6A and 6B for A549 cells. It was observed that CpdA at 10^−5 M blocked cell viability of L929sA and A549 for not more than 10%.

[3] = test system: B16BL6 melanoma, PG19 melanoma and Lewis Lung Carcinoma; assay: In vivo melanoma model, subcutaneous tumors in mice; conditions: eight days of treatment with 200 μg; PBS-treated 1.51+/−0.13 g
Method: In vivo melanoma model • Cells of B16BL6 melanoma, PG19 melanoma and Lewis Lung Carcinoma are kept in culture in DMEM supplemented with fetal calf serum, antibiotics and L-glutamine. Cells are harvested, washed three times in LPS-free PBS, and brought to a density of 6×10^6/ml (B16BL6) or 20×10^6/ml (PG19, EL4 and LLC). 100 μl of the cell suspension is injected subcutaneously into shaven, right hind limbs of the mice. When the tumors reach a size of 50-70 mm^2, daily treatment is started with dexamethasone (DEX), hydrocortisone (HYDRO), compound A (CpdA) or its analogues (intraperitoneally (i.p.) or in drinking water). DEX, HYDRO are diluted in PBS; CpdA is diluted in 20% ethanol. The smaller and larger diameters of the tumor are measured daily with an electronic caliper. Tumor size index (TSI) is defined in mm^2 as (a)×(b), (a) being the longest diameter of the tumor and (b) the diameter perpendicular to (a). […] Each mouse receives daily either PBS or a specific dose of DEX, ranging from 5 μg to 200 μg. […]. […] Toxicity and efficacy of CpdA and analogues will be evaluated.

[4] = Serum ELISA of osteoclast and osteoblast markers in DBA/1 mice; conditions: 62.5 μg daily, 8 day treatment; FIG. 21A
Excerpt: DBA/1 mice—Male 8- to 12-wk-old DBA/1 mice were purchased from Janvier and housed following institutional guidelines. All animal procedures were approved by the institutional animal care and ethics committee. […] The human IL-6 and IL-8 cytoset were purchased from BioSource International, Inc. For the detection of TRAP5b in DBA/1 mice serum we used the Mouse TRAP Assay, purchased from Immunodiagnostic systems limited. The osteocalcin EIA kit was purchased from Biomedical Technologies, Inc. All assays were performed according to the manufacturer's instructions.

MCF7 breast cancer cells = conditions: 10^−6 M
Method: In further experiments, nylon arrayfilter hybridization experiments were performed. cDNA array analyses were carried out according to the instructions of the manufacturer (SuperArray Simplicity GEArray™ KIT) on the cDNA arrays cancer pathway finder and stress and toxicity array. Total RNA, obtained by the protocol as described herein above, was used as a template for [α−^33P]-cDNA probe synthesis using the following steps:
A second array hybridization experiment was performed on Human Stress and Toxicity Pathway Finder GEarray Q series. The same protocol was followed as for the array hybridization experiment on the Human Cancer Pathway Finder described herein above.

C[C@@H]1C[C@H]2[C@@H]3CCC4=CC(=O)C=C[C@]4(C)[C@@]3(F)[C@@H](O)C[C@]2(C)[C@@]1(O)C(=O)CO [DEX, dexamethasone, reference compound]
cytotoxicity at 100 µM [1]: 10%
cytotoxicity at 100 µM (MM1.S cell line): 30%
cytotoxicity at 48 h [2]: 30%
Mean weight of tumors [3]: 0.59 ± 0.04 g
TRAP5b in mouse serum [4]: increase of TRAP5b in mouse serum
Levels of cyp1A1, FMO1, HMOX2, ATM, bcl2L1, casp1 (MCF7 breast cancer cells): increases levels

— patent US8039501B2, “Synephrine derivatives useful as anti-inflammatory agents” (Universiteit Gent, priority 2005, dated 2011)
